Literature values, collected in patent US20210321634A1, “Lactobacillus Acidipiscis, Fermented Soymilk, and Preparation Method and Use Thereof” (Hebei Agricultural University, priority 2020, published 2021).

Key:
[1] = compared with daidzein and genistein
[2] = compared with daidzein

O=C1c2ccc(O)cc2OCC1c1ccc(O)cc1 (stereo not drawn) [DHD, dihydrodaidzein]
DPPH free radical scavenging activity [1]: significantly higher
cardiovascular protective activity [2]: significantly higher

O=C1c2c(O)cc(O)cc2OCC1c1ccc(O)cc1 (stereo not drawn) [DHG, dihydrogenistein]
DPPH free radical scavenging activity [1]: significantly higher
